Results taken from publication PMC10949600, “Iso-mukaadial acetate and ursolic acid acetate bind to Plasmodium Falciparum heat shock protein 70: towards targeting parasite protein folding pathway” (BMC Chemistry, 2024).
pKd: −log10 of the molar value. Where two headings read alike, the source gives them in different places.

Molecular target: T1, PfHsp70-1 (Plasmodium falciparum, UniProt P11144)
T1 construct: recombinant PfHsp70-1 (pQE30/PfHsp70-1)
Assay: SPR, PfHsp70-1 immobilized on CMD 3-D gold chip by amine coupling
Type: binding
Source text: SPR, PfHsp70-1 immobilized on CMD 3-D gold chip by amine coupling on PfHsp70-1 | PfHsp70 binds to either of the two compounds within the micromolar range of affinity

T1 sequence (P11144 whole entry): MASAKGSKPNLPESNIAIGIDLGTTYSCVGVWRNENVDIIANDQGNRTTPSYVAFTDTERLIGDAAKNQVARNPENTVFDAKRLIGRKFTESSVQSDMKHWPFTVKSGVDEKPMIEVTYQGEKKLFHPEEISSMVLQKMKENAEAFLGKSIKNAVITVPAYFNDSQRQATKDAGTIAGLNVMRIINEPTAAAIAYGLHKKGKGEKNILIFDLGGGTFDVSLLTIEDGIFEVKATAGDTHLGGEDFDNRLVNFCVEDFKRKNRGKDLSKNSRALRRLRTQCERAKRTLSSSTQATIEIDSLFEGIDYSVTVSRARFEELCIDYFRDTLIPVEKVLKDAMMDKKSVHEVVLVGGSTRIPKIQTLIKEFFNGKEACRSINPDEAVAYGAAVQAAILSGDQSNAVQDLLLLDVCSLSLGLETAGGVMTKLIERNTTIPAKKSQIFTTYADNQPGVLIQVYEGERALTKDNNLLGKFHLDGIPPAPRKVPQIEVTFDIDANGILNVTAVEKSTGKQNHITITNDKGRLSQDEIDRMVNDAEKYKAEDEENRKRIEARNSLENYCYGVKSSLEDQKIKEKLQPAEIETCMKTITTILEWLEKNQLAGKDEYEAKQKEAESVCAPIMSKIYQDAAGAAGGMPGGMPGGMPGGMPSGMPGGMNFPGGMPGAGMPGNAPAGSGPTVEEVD

Compound	pKd	pKd (read-out: KD)
CC(=O)O[C@H]1CC[C@]2(C)[C@H]3CC=C4[C@@H]5[C@@H](C)[C@H](C)CC[C@]5(C(=O)O)CC[C@@]4(C)[C@]3(C)CC[C@H]2C1(C)C [UAA, ursolic acid acetate]	5.39	
iso-mukaadial acetate [IMA]		5.00
